The results in this text go back to ChEMBL document CHEMBL1134495, “3D-QSAR model of flavonoids binding at benzodiazepine site in GABAA receptors” (J Med Chem, 2001).

The target in this assay is GABA-A receptor; anion channel. Briefly: Binding affinity towards benzodiazepine site in GABAA receptor. The class given is protein-complex assay.
For the molecule `COc1ccc(-c2cc(=O)c3cc(Br)ccc3o2)cc1`, the “-Log Ki” value is reported as 5.68.

As for `O=c1cc(-c2cccc(F)c2)oc2ccc(F)cc12`, the “-Log Ki” value came to 6.04. To `O=c1cc(-c2cccc(O)c2)oc2ccc(Cl)cc12` belongs 6.07.

`O=c1cc(-c2cccc(Cl)c2)oc2ccc(Cl)cc12`: the “-Log Ki” value is 7.64. In the case of `O=c1cc(-c2ccc(O)cc2)oc2cc(O)cc(O)c12` [APIGENIN], the “-Log Ki” value is on record as 5.52. As for `O=c1cc(-c2ccccc2)oc2cc(O)cc(O)c12` [CHRYSIN], the figure is 5.52. In the case of `O=c1cc(-c2cccc(Br)c2)oc2ccc(Cl)cc12`, the “-Log Ki” value is 7.64. As for `O=C(O)[C@H]1O[C@@H](Oc2cc3oc(-c4ccccc4)cc(=O)c3c(O)c2O)[C@H](O)[C@@H](O)[C@@H]1O` [BAICALIN], the figure is 4.11; as for `O=c1cc(-c2ccc(O)cc2)oc2cc(O)c(O)c(O)c12` [SCUTELLAREIN], 4.92. As for `O=c1cc(-c2ccc(Br)cc2)oc2ccc([N+](=O)[O-])cc12`, the figure is 7.6. Consider `O=c1cc(-c2cccc(Br)c2)oc2ccccc12`, for which the “-Log Ki” value amounted to 6.38. For the molecule `O=c1cc(-c2ccccc2F)oc2cc(O)cc(O)c12`, the “-Log Ki” value is recorded as 5.1.

For the molecule `O=c1cc(-c2cccc(Cl)c2)oc2ccccc12`, the “-Log Ki” value turned out to be 6.21. To `O=c1cc(-c2ccccc2)oc2ccc(Br)cc12` [6-BROMOFLAVONE] belongs 7.15. For `O=c1cc(-c2ccccc2F)oc2ccc(Br)cc12`, the “-Log Ki” value is recorded as 6.42. Regarding `COc1ccc(-c2cc(=O)c3cc(Cl)ccc3o2)cc1`, the “-Log Ki” value is listed as 5.9. To `O=c1cc(-c2cccc(O)c2)oc2ccc(F)cc12` belongs 5.6; to `O=c1cc(-c2cccc([N+](=O)[O-])c2)oc2ccc(F)cc12`, 6.74; to `O=c1cc(-c2cccc(F)c2)oc2ccccc12`, 5.45. In the case of `O=c1cc(-c2ccccc2)oc2ccccc12` [FLAVONE], the “-Log Ki” value is reported as 6.

Regarding `O=c1cc(-c2ccccc2)oc2c(Br)c(O)c(Br)c(O)c12`, the “-Log Ki” value is reported as 6.15. Regarding `O=c1cc(-c2cccc([N+](=O)[O-])c2)oc2ccc([N+](=O)[O-])cc12`, the “-Log Ki” value came out at 7.92.

For `O=c1cc(-c2ccc(F)cc2)oc2ccccc12`, the “-Log Ki” value came out at 5.44. To `O=c1cc(-c2ccccc2)oc2cc(O)c(O)c(O)c12` [BAICALEIN] belongs 5.25; to `O=c1cc(-c2cccc(F)c2)oc2ccc(Cl)cc12`, 6.93.

Regarding `O=c1cc(-c2cccc(Cl)c2)oc2ccc(F)cc12`, the “-Log Ki” value was 6.7. For `O=c1cc(-c2ccccc2F)oc2ccc(Cl)cc12`, the “-Log Ki” value amounted to 6.38.

With `O=c1cc(-c2cccc(F)c2)oc2ccc(Br)cc12`, the “-Log Ki” value was found to be 7.38.

For `O=c1cc(-c2ccccc2Cl)oc2cc(O)cc(O)c12`, the “-Log Ki” value is reported as 5.1. As for `O=c1cc(-c2cccc(Br)c2)oc2ccc(Br)cc12`, the figure is 7.72.

In the case of `O=c1cc(-c2cccc(O)c2)oc2ccc(Br)cc12`, the “-Log Ki” value is on record as 6.22.

For `O=c1cc(-c2cccc([N+](=O)[O-])c2)oc2ccc(Br)cc12`, the “-Log Ki” value was 9. To `O=c1cc(-c2cccc([N+](=O)[O-])c2)oc2ccc(Cl)cc12` belongs 8.1; to `O=c1cc(-c2ccc(F)cc2)oc2ccc(Br)cc12`, 6.94. As for `COc1c(O)cc2oc(-c3ccc(O)cc3)cc(=O)c2c1O` [HISPIDULIN], the figure is 6; as for `O=c1cc(-c2ccccc2[N+](=O)[O-])oc2ccc(Br)cc12`, 6.68. As for `O=c1cc(-c2ccc(F)cc2)oc2ccc(F)cc12`, the figure is 5.6; as for `O=c1cc(-c2ccc(F)cc2)oc2ccc(Cl)cc12`, 6.74.

With `O=c1cc(-c2cccc(Cl)c2)oc2ccc(Br)cc12`, the “-Log Ki” value was 7.77. For the molecule `O=c1cc(-c2cccc(Br)c2)oc2ccc(F)cc12`, the “-Log Ki” value is on record as 6.63. As for `O=c1cc(-c2ccc([N+](=O)[O-])cc2)oc2ccc(Br)cc12`, the figure is 6.7. Consider `COc1c(O)cc(O)c2c(=O)cc(-c3ccccc3)oc12` [WOGONIN], for which the “-Log Ki” value came out at 5.69.
